Read-outs that look alike come from different tables or passages of the source. Starred links: 1 amine or outer side, 2 acyl side, 3 side chain; linkers in the order of their positions; H or OH if unused. Non-standard residues stand in square brackets, D forms with d. Groups on a side chain read outwards from the residue. *: point of attachment. C18 diacid = O=C(O)CCCCCCCCCCCCCCCCC(=O)*; αMePhe(2-F) = C[C@](N)(Cc1ccccc1F)C(=O)O; γGlu = O=C(O)[C@H](CCC(=O)[*:2])N[*:1]; αMe4Pal = C[C@](N)(Cc1ccncc1)C(=O)O; αMeY = C[C@](N)(Cc1ccc(O)cc1)C(=O)O; 4Pal = N[C@@H](Cc1ccncc1)C(=O)O; αMeL = CC(C)C[C@](C)(N)C(=O)O; αMeS = C[C@](N)(CO)C(=O)O; Orn = NCCC[C@H](N)C(=O)O; AEEA = NCCOCCOCC(=O)O; Aib = CC(C)(N)C(=O)O
What was measured:
hGIPR [1] = target: T1, hGIPR (Homo sapiens, UniProt P48546); test: Functional cAMP activity in the presence of 1% HSA; format: cell-based; conditions: read-out: cAMP Rel EC50, hGIPR
T1 sequence (P48546 22-466): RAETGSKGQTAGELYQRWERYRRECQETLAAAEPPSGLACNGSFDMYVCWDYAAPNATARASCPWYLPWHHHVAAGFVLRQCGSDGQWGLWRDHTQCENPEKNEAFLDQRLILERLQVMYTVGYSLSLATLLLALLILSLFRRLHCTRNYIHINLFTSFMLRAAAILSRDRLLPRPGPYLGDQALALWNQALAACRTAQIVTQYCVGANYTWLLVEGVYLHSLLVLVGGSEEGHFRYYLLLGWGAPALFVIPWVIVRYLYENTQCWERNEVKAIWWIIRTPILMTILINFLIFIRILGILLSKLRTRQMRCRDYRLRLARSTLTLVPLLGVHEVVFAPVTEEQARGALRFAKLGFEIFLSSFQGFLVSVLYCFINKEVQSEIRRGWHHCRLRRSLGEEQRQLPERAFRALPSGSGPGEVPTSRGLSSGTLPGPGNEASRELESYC

hGLP-1R [2] = target: T2, hGLP-1R (Homo sapiens, UniProt P43220); test: Functional cAMP activity in the presence of 1% HSA; format: cell-based; conditions: read-out: cAMP Rel EC50, hGLP-1R
T2 sequence (P43220 24-463): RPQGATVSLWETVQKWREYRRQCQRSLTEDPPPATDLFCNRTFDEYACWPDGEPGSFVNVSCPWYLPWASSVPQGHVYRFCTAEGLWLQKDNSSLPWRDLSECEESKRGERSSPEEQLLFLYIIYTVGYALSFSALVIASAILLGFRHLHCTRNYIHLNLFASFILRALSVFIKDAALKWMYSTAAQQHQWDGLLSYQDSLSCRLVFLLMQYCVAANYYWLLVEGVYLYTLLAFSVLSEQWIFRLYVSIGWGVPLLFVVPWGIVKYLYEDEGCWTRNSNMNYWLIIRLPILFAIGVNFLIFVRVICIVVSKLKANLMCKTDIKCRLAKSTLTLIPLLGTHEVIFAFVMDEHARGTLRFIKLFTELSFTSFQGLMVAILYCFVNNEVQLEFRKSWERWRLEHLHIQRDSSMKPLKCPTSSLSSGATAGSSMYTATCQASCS

human GcgR = human GcgR (Homo sapiens, UniProt P47871); test: Functional cAMP activity in the presence of 1% HSA; format: cell-based; conditions: read-out: cAMP Rel EC50, hGcgR
Sequence of human GcgR (P47871 26-477): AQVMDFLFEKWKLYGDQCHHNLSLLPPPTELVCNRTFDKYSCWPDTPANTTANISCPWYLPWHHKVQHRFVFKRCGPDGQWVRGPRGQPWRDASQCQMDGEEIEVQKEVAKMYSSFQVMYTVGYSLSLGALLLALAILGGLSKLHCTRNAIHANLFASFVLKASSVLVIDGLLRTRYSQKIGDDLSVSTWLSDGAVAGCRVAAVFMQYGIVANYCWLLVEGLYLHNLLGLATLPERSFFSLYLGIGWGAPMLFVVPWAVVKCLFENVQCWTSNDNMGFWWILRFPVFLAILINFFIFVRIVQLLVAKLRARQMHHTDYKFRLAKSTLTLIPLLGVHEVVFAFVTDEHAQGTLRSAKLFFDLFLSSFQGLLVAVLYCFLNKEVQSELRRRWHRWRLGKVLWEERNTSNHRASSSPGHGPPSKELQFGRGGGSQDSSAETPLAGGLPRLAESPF

hGIPR [3] = target: T1, hGIPR; test: Functional cAMP activation in the presence of 0.1% casein (no HSA); format: cell-based; conditions: read-out: Relative cAMP EC50, hGIPR;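 on Relative cAMP EC50, hGIPR: intracellular cAMP rise after 30 min at 37 °C read by HTRF against a standard curve, scaled between buffer alone (0%) and top control ligand concentration (100%), four-parameter fit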;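 on Relative cAMP EC50, hGLP-1R: intracellular cAMP rise after 30 min at 37 °C read by HTRF, normalized between buffer only (0%) and maximal control ligand (100%), four-parameter variable-slope fit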;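 on Relative cAMP EC50, hGcgR: intracellular cAMP rise after 30 min at 37 °C, read by HTRF against a cAMP standard curve, scaled from buffer only (0%) to maximal control ligand response (100%)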
hGLP-1R [4] = target: T2, hGLP-1R; test: as above; format: cell-based; conditions: read-out: Relative cAMP EC50, hGLP-1R
hGcgR = hGcgR (Homo sapiens, UniProt P47871); test: as above; format: cell-based; conditions: read-out: Relative cAMP EC50, hGcgR;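 further: intracellular cAMP rise after 30 min at 37 °C, read by HTRF against a cAMP standard curve, scaled from buffer only (0%) to maximal control ligand response (100%)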
Sequence of hGcgR (P47871 26-477): as above

[5] = Body weight in diet-induced obese C57BL/6 mice; format: in vivo; conditions: 10 nmol/kg SC QD, 7 days, percent of starting weight, DIO mice, mean ± SEM n=5
Outline: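 Daily weighing gave body weight as percent of starting value (mean±SEM, n=5) over 9-16 days of SC dosing, once daily or every 3 days, shortly before lights-off. Animals were weight-randomized male C57BL/6 DIO mice, 41-50 g, fed ad libitum on a calorie-rich diet.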

[6] = system: Intestinal organoid from Göttingen minipig jejunum tissue, 2D monolayer; test: Cell based in vitro permeability (Papp) assay; format: in vitro ADME
Outline: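 Papp calculated from LC/MS peptide levels in apical and basal compartments. Basal sampling at 20 min with C10 present, across monolayers grown from dissociated minipig jejunal organoids in transwells.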

[7] = Pepsin stability assay in simulated gastric fluid; format: in vitro ADME; conditions: pH 1.2, % Intact (SD)
Protocol: A pepsin stability assay is utilized to determine the relative stability of Example polypeptides in a simulated gastric proteolytic environment. […] The relative amount of intact peptide is quantified by mass spectrometry (MS). […] The examples were dissolved in 50 mM Tris buffer pH 8.0 at a concentration of 10 mg/mL as a stock solution. Pepsin A was reconstituted in SGF at 10 mg/mL. […] The example peptide and pepsin solutions were then incubated at 37° C. in a shaking incubator set at 100 rpm. Samples (25 μL) were withdrawn at different time intervals and quenched with 100 mM ammonium bicarbonate pH 9 (50 μL) to stop proteolytic activity. All samples were centrifuged, and the supernatants were analyzed by LC/MS to determine the remaining intact peptide.

in vivo [8] = test: in vivo; design: species or system cynomolgus monkeys; conditions: both sexes, cynomolgus monkey, iv, 10 nmol/kg
Protocol: (§1) A study is designed to evaluate the oral bioavailability of Example polypeptides in cynomolgus monkeys. […] Standards and controls are prepared in cynomolgus monkey plasma, and any dilutions required to bring samples into the quantitative range are also performed in control cynomolgus monkey plasma. To control assay variability, an internal standard (IS) is added to all the standards and samples. The Examples and IS are extracted from 100% monkey plasma (50 μL) by protein precipitation using isopropyl alcohol and methanol (50:50 v/v). The samples are then centrifuged (3000 rpm for 10 minutes) and the supernatant is transferred to a Siricco Protein Precipitation Plate. The samples are loaded on a Sep-Pak tC18 SPE microelution plate that is conditioned with 2% formic acid in acetonitrile and water. The compounds are then washed with 2% formic acid in water and eluted using 2% formic acid in acetonitrile into a plate containing 5× Invitrosol and 1% formic acid in water prior to injecting an aliquot (10 μL) on to Xselect CSH C18, 3.5 μm, 2.1×20 mm for LC/MS analysis.
Blood samples are collected over 504 hours. Plasma is harvested from blood samples by centrifugation and stored frozen (−70° C.) until analysis. Plasma concentrations of the molecules are detected using the bioanalytical method described above.

in vivo [9] = test: in vivo; design: species or system cynomolgus monkeys; conditions: both sexes, cynomolgus monkey, po; for bioavailability: 10 mg; for AUC(0-inf) / CL/F / Cmax / Tmax / half-life: 300 mg
Protocol: as §1
[…] Blood samples are collected up to 504 hours post-dose. Plasma is harvested from blood samples by centrifugation and stored frozen (−70° C.) until analysis. Plasma concentrations of the molecules are detected using the bioanalytical method described above.

human GLP1-R = human GLP1-R (Homo sapiens, UniProt P43220); test: GLP1-R internalization assay in HEK293 cells; format: cell-based; conditions: for EC50: HEK293 cells expressing SNAP-GLP-1R, read-out: GLP1R Internalization EC50; for Internalization % TOP: normalized to maximum concentration of GLP-1 (100%)
Sequence of human GLP1-R (P43220 24-463): as the sequence (P43220 24-463) above

[10] = in the presence of 0.1% casein (no HSA), geometric mean

## CC[C@H](C)[C@H](NC(=O)[C@H](CC(C)C)NC(=O)[C@](C)(Cc1ccc(O)cc1)NC(=O)[C@@H](CCC(=O)O)NC(=O)[C@@H](NC(=O)[C@H](Cc1ccccc1)NC(=O)[C@H](CCC(=O)O)NC(=O)[C@](C)(Cc1ccncc1)NC(=O)[C@H](CCC(N)=O)NC(=O)[C@H](C)NC(=O)[C@H](CCCCNC(=O)CC[C@H](NC(=O)CC[C@H](NC(=O)CCCCCCCCCCCCCCCCC(=O)O)C(=O)O)C(=O)O)NC(=O)[C@H](CCCN)NC(=O)[C@H](CC(=O)O)NC(=O)[C@H](CC(C)C)NC(=O)[C@](C)(CC(C)C)NC(=O)[C@@H](NC(=O)[C@](C)(CO)NC(=O)[C@H](Cc1ccncc1)NC(=O)[C@H](CC(=O)O)NC(=O)[C@H](CO)NC(=O)[C@@H](NC(=O)[C@](C)(Cc1ccccc1F)NC(=O)[C@@H](NC(=O)CNC(=O)[C@H](CCC(N)=O)NC(=O)C(C)(C)NC(=O)[C@@H](N)Cc1ccc(O)cc1)[C@@H](C)O)[C@@H](C)O)[C@@H](C)CC)[C@@H](C)CC)C(=O)N[C@@H](CCC(=O)O)C(=O)NCC(=O)NCC(=O)N1CCC[C@H]1C(=O)N[C@@H](CO)C(=O)N[C@@H](CO)C(=O)NCC(=O)N[C@@H](C)C(=O)N1CCC[C@H]1C(=O)N1CCC[C@H]1C(=O)N1CCC[C@H]1C(=O)N[C@@H](CO)C(=O)NCC(=O)N[C@@H](CO)C(N)=O [Example 700]
hGIPR [1]
  EC50: 0.397 nM
hGLP-1R [2]
  EC50: 20 nM
Human GcgR
  EC50: 132 nM
hGIPR [3]
  EC50: 0.00758 nM
hGLP-1R [4]
  EC50: 0.245 nM
hGcgR
  EC50: 1.31 nM
[5]
  Body weight (%): 75.9 ± 3.77 %
[6]
  Relative Papp (Compared to internal standard): 0.29
[7]
  remaining at 0.25 h, 0.4 mg/mL: 89.9%
  remaining at 0.5 h, 0.4 mg/mL: 106%
  remaining at 1 h, 0.4 mg/mL: 98.9%

## H-Y[Aib]QGTFTSD[4Pal]SQ[αMeL]LDKK([γGlu-γGlu-C18 diacid])AQ[αMe4Pal]AFIEYLIAGGPSSGAPPPSGE-NH2 [Example 883]
hGIPR [1]
  EC50: 9.41 nM
hGLP-1R [2]
  EC50: 120 nM
Human GcgR
  EC50: 578 nM
hGIPR [3]; [10]
  EC50: 0.0779 nM
hGLP-1R [4]; [10]
  EC50: 1.05 nM
hGcgR; [10]
  EC50: 4.02 nM
In vivo [8]
  AUC(0-inf): 8.69 ± 0.623 µM·h
  clearance: 0.00115 L/h/kg
  half-life: 62.8 ± 53.9 h
In vivo [9]
  bioavailability: 0.3%
  AUC(0-inf): 1.28 µM·h
  CL/F: 0.666 L/h/kg
  Cmax: 0.0436 µM
  Tmax: 2 h
  half-life: 29 h
Human GLP1-R
  EC50: 23.9 nM
  Internalization % TOP: 77.1%

## H-Y[Aib]QGTFTSD[4Pal]SQ[αMeL]LD[Orn]K([γGlu-γGlu-C18 diacid])AQ[αMe4Pal]AFIE[αMeY]LIEGGPSSGEPPPSGSEE-NH2 [Example 1027]
hGIPR [1]
  EC50: 58.1 nM
hGLP-1R [2]
  EC50: 252 nM
Human GcgR
  EC50: 1470 nM
hGIPR [3]; [10]
  EC50: 0.208 nM
hGLP-1R [4]; [10]
  EC50: 1.23 nM
hGcgR; [10]
  EC50: 4.99 nM
In vivo [8]
  AUC(0-inf): 8.57 ± 1.55 µM·h
  clearance: 0.0012 L/h/kg
  half-life: 76.4 ± 31.4 h
In vivo [9]
  bioavailability: 1.2%
  AUC(0-inf): 5.07 µM·h
  CL/F: 0.166 L/h/kg
  Cmax: 0.135 µM
  Tmax: 2.5 h
  half-life: 55.7 h

## H-Y[Aib]QGT[αMePhe(2-F)]TSD[4Pal]SILLDKK([γGlu-γGlu-C18 diacid])AQ[Aib]AFIEYLEEGGPSSGAPPPSGTGE-NH2 [Example 510]
hGIPR [1]
  EC50: 6.4 nM
hGLP-1R [2]
  EC50: 74.2 nM
Human GcgR
  EC50: 564 nM
hGIPR [3]
  EC50: 0.0627 nM
hGLP-1R [4]
  EC50: 0.71 nM
hGcgR
  EC50: 5.44 nM
In vivo [8]
  AUC(0-inf): 14.5 ± 3.42 µM·h
  clearance: 0.000716 L/h/kg
  half-life: 55.9 ± 13.2 h
In vivo [9]
  bioavailability: 0.7%
  AUC(0-inf): 5.09 µM·h
  CL/F: 0.31 L/h/kg
  Cmax: 0.126 µM
  Tmax: 2 h
  half-life: 47 h
Human GLP1-R
  EC50: 11.8 nM
  Internalization % TOP: 113%

## H-Y[Aib]QGT[αMePhe(2-F)]TSD[4Pal][αMeS]I[αMeL]LD[Orn]K([AEEA-γGlu-C18 diacid])AQ[αMe4Pal]EFI[dE][αMeY]LVEGGPSSGEPPPSGS-NH2 [Example 733]
hGIPR [1]
  EC50: 1.15 nM
hGLP-1R [2]
  EC50: 34.3 nM
Human GcgR
  EC50: 207 nM
hGIPR [3]
  EC50: 0.00894 nM
hGLP-1R [4]
  EC50: 0.293 nM
hGcgR
  EC50: 1.6 nM
[7]
  remaining at 0.25 h, 0.4 mg/mL: 109%
  remaining at 0.5 h, 0.4 mg/mL: 107%
  remaining at 1 h, 0.4 mg/mL: 110%

## H-Y[Aib]QGT[αMePhe(2-F)]TSD[4Pal][αMeS]I[αMeL]LD[Orn]K([γGlu-γGlu-C18 diacid])AQ[αMe4Pal]EFI[dE][αMeY]LIEGGPSSGAPPPSGTGE-NH2 [Example 718]
hGIPR [1]
  EC50: 0.531 nM
hGLP-1R [2]
  EC50: 23.2 nM
Human GcgR
  EC50: 144 nM
hGIPR [3]
  EC50: 0.00706 nM
hGLP-1R [4]
  EC50: 0.214 nM
hGcgR
  EC50: 1.2 nM
[7]
  remaining at 0.25 h, 0.4 mg/mL: 103%
  remaining at 0.5 h, 0.4 mg/mL: 101%

## H-Y[Aib]QGT[αMePhe(2-F)]TSD[4Pal][αMeS]I[αMeL]LD[Orn]K([γGlu-γGlu-C18 diacid])AQ[αMe4Pal]EFI[dE][αMeY]LVEGGPSSGAPPPSGS-NH2 [Example 696]
hGIPR [1]
  EC50: 0.53 nM
hGLP-1R [2]
  EC50: 19.1 nM
Human GcgR
  EC50: 173 nM
hGIPR [3]
  EC50: 0.00688 nM
hGLP-1R [4]
  EC50: 0.233 nM
hGcgR
  EC50: 1.75 nM
[6]
  Relative Papp (Compared to internal standard): 0.77
[7]
  remaining at 0.25 h, 0.4 mg/mL: 102%
  remaining at 0.5 h, 0.4 mg/mL: 107%

— patent US20240270821A1, “GIP/GLP1/GCG TRI-RECEPTOR AGONISTS AND USES THEREOF” (priority 2023, published 2024)
